Data on one molecule can be found in US20040121931A1, “Aqueous perborate bleach composition” (Unilever Home & Persona Care USA, Division of Conopco, Inc., priority 2002, published 2004).

A short description of this data set: Iterative determination of perborate solubility in water and polyol/water (visual). Type of data set: physicochemical. How it is done:
An iterative process was used to determine the extent of perborate solubilty in water and polyol/water. 1.5 g of Na perborate monohydrate was added either to 100 g of water (Table 1A) or to 90 g water and 10 g sorbitol (70% active) (Table 1B). The mixture was stirred until all of sodium perborate monohydrate was dissolved. A 0.5 g aliquot of sodium perborate monohydrate was then added to the solution while stirring and visually monitored to see if all the added sodium perborate monohydrate dissolves. If the aliquot dissolved, another 0.5 g of sodium perborate monohydrate would be added. This procedure was continued until the added perborate no longer appeared to dissolve.

Setting [1] is: 1.50 g in 90 g water + 10 g sorbitol (70%), perborate/sorbitol 1/3.55.
Setting [2] is: 3.50 g in 90 g water + 10 g sorbitol (70%), perborate/sorbitol 1/1.01.
Where [3] appears, read: 5.50 g in 90 g water + 10 g sorbitol (70%), perborate/sorbitol 1.43/1.
The mark [4] stands for this setting: 8.00 g in 90 g water + 10 g sorbitol (70%), perborate/sorbitol 2.09/1.
Where [5] appears, read: 8.50 g in 90 g water + 10 g sorbitol (70%), perborate/sorbitol 2.22/1.
Setting [6] is: 9.50 g in 90 g water + 10 g sorbitol (70%), perborate/sorbitol 2.49/1.

The structures appear in SMILES notation.

With `O.O=BO[O-].[Na+]` [Sodium Perborate monohydrate, sodium perborate monohydrate], the Appearance result is, setting by setting: under setting [1], “Clear solution”; (1.5 g in 100 g water) “Clear solution”; (2.0 g in 100 g water) “Precipitate formed”; under setting [2], “Clear solution”; under setting [3], “Clear solution”; under setting [4], “Clear solution”. For the same molecule, the Appearance entry was “Precipitate” under setting [5] and “Precipitate” under setting [6]. In addition, the pH worked out at 8.30 under setting [1]; 10.00 (1.5 g in 100 g water); 10.06 (2.0 g in 100 g water); 9.33 under setting [2]; 9.56 under setting [3]; 9.60 under setting [4]. Further, the pH by setting is: under setting [5], 9.60; under setting [6], 9.60. Moreover, the “solubility in water, in the presence of polyol” value (90 g water and 10 g sorbitol (70% active)) is on record as “up to 8.5 g”. Moreover, the “increase of solubility of perborate by polyol” value (aqueous environment, with sorbitol vs without) is “about 400%”. Further, the solubility in water result (in 100 g water, no polyol) is given as “below 2.0 g”.
